The record followed here is US10730863B2, “Bridged bicyclic compounds as farnesoid X receptor modulators” (BRISTOL-MYERS SQUIBB COMPANY, priority 2017, dated 2020).

The structures appear in SMILES notation.

The target in the test is FXR (Homo sapiens (Human), UniProt Q96RI1). The experiment in a line: FXR EC50 (FXR agonist activity reported with each example). In kind it is cell-based.
Sequence of FXR (Q96RI1 262-486): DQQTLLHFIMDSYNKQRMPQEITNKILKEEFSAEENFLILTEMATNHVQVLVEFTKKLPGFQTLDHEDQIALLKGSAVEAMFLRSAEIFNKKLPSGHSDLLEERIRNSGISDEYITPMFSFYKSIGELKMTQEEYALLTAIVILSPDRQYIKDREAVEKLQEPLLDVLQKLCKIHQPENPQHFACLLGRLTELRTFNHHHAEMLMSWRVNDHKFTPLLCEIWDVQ
As for `O=C(O)c1cccc2nc(C34CCC(OCc5c(-c6c(Cl)cncc6Cl)noc5C5CC5)(CC3)CC4)sc12` [Example 432, 2-(4-((5-cyclopropyl-3-(3,5-dichloropyridin-4-yl)isoxazol-4-yl)methoxy)bicyclo[2.2.2]octan-1-yl)benzo[d]thiazole-7-carboxylic acid], the half-maximal effective concentration (EC50) (as a rule, the concentration that produces a half-maximal response) worked out at 23 nM.
To `O=C(O)c1cccc(OCC23CCC(OCc4c(-c5c(Cl)cccc5Cl)noc4C4CC4)(CC2)CC3)c1` [Example 82, 3-((4-((5-cyclopropyl-3-(2,6-dichlorophenyl)isoxazol-4-yl)methoxy)bicyclo[2.2.2]octan-1-yl)methoxy) benzoic acid] belongs 22 nM; to `O=C(O)c1ccc(F)c(C(O)C23CCC(OCc4c(-c5c(Cl)cccc5Cl)noc4C4CC4)(CC2)CC3)c1` (centres unmarked) [Example 121, 3-((4-((5-cyclopropyl-3-(2,6-dichlorophenyl)isoxazol-4-yl)methoxy)bicyclo[2.2.2]octan-1-yl)(hydroxy)methyl)-4-fluorobenzoic acid], 1500 nM; to `COC1CN(c2cc(C(=O)O)nc3ccc(OCC45CCC(OCc6c(-c7c(Cl)cncc7Cl)noc6C6CC6)(CC4)CC5)cc23)C1` [Example 329, 6-((4-((5-cyclopropyl-3-(3,5-dichloropyridin-4-yl)isoxazol-4-yl)methoxy)bicyclo[2.2.2]octan-1-yl)methoxy)-4-(3-methoxyazetidin-1-yl)quinoline-2-carboxylic acid], 1400 nM.
Turning to `COc1cc(-c2noc(C34CCC(OCc5c(-c6c(Cl)cncc6Cl)noc5C5CC5)(CC3)CC4)n2)cnc1C(=O)O` [Example 265, 5-(5-(4-((5-cyclopropyl-3-(3,5-dichloropyridin-4-yl)isoxazol-4-yl)methoxy)bicyclo[2.2.2]octan-1-yl)-1,2,4-oxadiazol-3-yl)-3-methoxypicolinic acid], the concentration giving a half-maximal response (EC50) came to 1500 nM.
With `N#Cc1cccc(OCC23CCC(OCc4c(-c5c(Cl)cccc5Cl)noc4C4CC4)(CC2)CC3)c1` [Example 88, 3-((4-((5-cyclopropyl-3-(2,6-dichlorophenyl)isoxazol-4-yl)methoxy)bicyclo[2.2.2]octan-1-yl)methoxy)benzonitrile], the EC50 was 960 nM.
`O=C(O)c1cccc(-c2noc(C34C5C6C3C3C4C5C63COCc3c(-c4c(Cl)cccc4Cl)noc3C3CC3)n2)c1` (centres unmarked) [Example 513, 3-(5-(4-(((5-cyclopropyl-3-(2,6-dichlorophenyl)isoxazol-4-yl)methoxy)methyl)cuban-1-yl)-1,2,4-oxadiazol-3-yl)benzoic acid]: the EC50 came to 960 nM.
To `Cc1nc(C23CCC(COCc4c(-c5c(Cl)cccc5Cl)noc4C4CC4)(CC2)CC3)sc1C(=O)O` [Example 179, 2-(4-(((5-cyclopropyl-3-(2,6-dichlorophenyl)isoxazol-4-yl)methoxy)methyl)bicyclo[2.2.2]octan-1-yl)-4-methylthiazole-5-carboxylic acid] belongs 560 nM; to `COc1ccc(C(=O)O)c2ccc(OCC34CCC(OCc5c(-c6c(Cl)cncc6Cl)noc5C5CC5)(CC3)CC4)nc12` [Example 342], 33 nM.
`CCn1nc(C(=O)O)c2ccc(C34CCC(OCc5c(-c6c(Cl)cncc6Cl)noc5C5CC5)(CC3)CC4)nc21` [Example 403] returned a half-maximal effective concentration (EC50) of 4 nM.
For the compound `O=C(O)c1ccc(-c2nc(C34CCC(OCc5c(-c6ccccc6C(F)(F)F)noc5C5CC5)(CC3)CC4)no2)cc1` [Example 21, 4-(3-(4-((5-cyclopropyl-3-(2-(trifluoromethyl)phenyl)isoxazol-4-yl)methoxy)bicyclo[2.2.2]octan-1-yl)-1,2,4-oxadiazol-5-yl)benzoic acid], the midpoint of the response, the EC50, lay at 880 nM.
The compound `Cn1cc(C#CC23CCC(OCc4c(-c5c(Cl)cncc5Cl)noc4C4CC4)(CC2)CC3)c2ccc(C(=O)O)cc21` [Example 399] returned an EC50 of 83 nM.
The figure for `O=C(O)c1ncc(OCC23CCC(OCc4c(-c5c(Cl)cncc5Cl)noc4C4CC4)(CC2)CC3)cc1OC1CCC1` [Example 339] is 28 nM; for `O=C(O)c1ccc(-c2noc(C34CCC(OCc5c(-c6ccccc6OC(F)(F)F)noc5C5CC5)(CC3)CO4)n2)cc1` [Example 212] it is 1000 nM.
